Measured values: patent US20090270350A1, “Pyridinone Pyrazole Urea and Pyrimidinone Pyrazole Urea Derivatives” (PFIZER INC., priority 2006, published 2009)

Biological target: p38α (Homo sapiens, UniProt Q16539)
Assay: p38α/MK2 cascade assay
Type: biochemical
Details: Table 1; inhibitors preincubated with p38α for 40 minutes; phosphorylation of Hsp27 peptide by MK-2, Caliper LabChip 3000; read-out: p38a/MK2 Cascade 40 min Pre-Incuabtion (% Inhibition): IC50
Method: The ability of compounds to inhibit activated p38α was determined in a p38α/MK-2 cascade assay format. The kinase activity of p38α is determined by its ability to phosphorylate/activate nonactive MK2 (54-400). Activation of MK-2 by p38α is measured by following the phosphorylation of a MK-2 specific peptide, Hsp27 peptide (FITC-KKKALSRQLSVAA). The phosphorylation of the Hsp27 peptide was quantified using the Caliper LabChip 3000. The kinase reactions were carried out in 20 mM HEPES pH 7.5, 10 mM MgCl2, 0.0005% Tween-20, 0.01% BSA, 1 mM DTT, and 2% DMSO. The inhibitors were varied between 1000-0.05 nM, while the Hsp27 peptide substrate, MgATP, and nonactive MK-2 (54-400) were held constant at 0.5 µM, 5 µM, and 1 nM, respectively. Inhibitors were preincubated with p38α for 40 minutes prior to initiating the reaction with peptide, MgATP, and MK-2. The kinase reactions were quenched after 60 minutes by the addition of stop buffer (180 mM HEPES, 30 mM EDTA, and 0.2% Coating Reagent-3).
The above protocol assay was used to determine the IC50 values for some of the compounds in the above Examples.
IC50 values were determined for the compounds listed in Table 2, using the same p38α/MK2 cascade assay used to determine the IC50 values for the compounds in Table 1. The compounds of Table 2 were prepared using methods similar to those listed in the Examples for compounds of Table 1.

Sequence of p38α (Q16539 whole entry): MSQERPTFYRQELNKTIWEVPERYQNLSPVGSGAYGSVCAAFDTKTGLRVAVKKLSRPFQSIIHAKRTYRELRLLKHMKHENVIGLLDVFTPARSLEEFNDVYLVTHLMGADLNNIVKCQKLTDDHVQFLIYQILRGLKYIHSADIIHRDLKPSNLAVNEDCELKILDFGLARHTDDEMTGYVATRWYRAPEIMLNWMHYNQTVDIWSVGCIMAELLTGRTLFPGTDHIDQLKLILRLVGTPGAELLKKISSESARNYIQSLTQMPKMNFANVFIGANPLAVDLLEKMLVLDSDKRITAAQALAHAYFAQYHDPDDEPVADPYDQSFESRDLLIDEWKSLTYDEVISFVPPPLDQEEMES

Row | SMILES | IC50 [nM]
1 | COc1ccc(Cn2c(C)cc(OCc3ccccc3CNC(=O)Nc3cc(C(C)(C)C)nn3-c3ccc(Cl)c(O)c3)c(Cl)c2=O)cc1Cl [Example 67, 1-[3-tert-butyl-1-(4-chloro-3-hydroxyphenyl)-1H-pyrazol-5-yl]-3-[2-({[3-chloro-1-(3-chloro-4-methoxybenzyl)-6-methyl-2-oxo-1,2-dihydropyridin-4-yl]oxy}methyl)benzyl]urea] | 7.9
2 | COc1ccc(Cn2c(C)cc(OCc3ccccc3CNC(=O)Nc3cc(C4CC4)nn3-c3ccccc3)c(Br)c2=O)cc1 [Example 102, 1-[2-({[3-bromo-1-(4-methoxybenzyl)-6-methyl-2-oxo-1,2-dihydropyridin-4-yl]oxy}methyl)benzyl]-3-(3-cyclopropyl-1-phenyl-1H-pyrazol-5-yl)urea] | 182
3 | Cc1cc(OCc2ccccc2CNC(=O)Nc2cc(C(C)(C)C)nn2-c2ccccc2)c(Br)c(=O)n1Cc1ccccc1 [Example 104, 1-(2-{[(1-benzyl-3-bromo-6-methyl-2-oxo-1,2-dihydropyridin-4-yl)oxy]methyl}benzyl)-3-(3-tert-butyl-1-phenyl-1H-pyrazol-5-yl)urea] | 4.52
4 | Cc1cc(OCc2ccccc2CNC(=O)Nc2cc(C(C)(C)C)nn2-c2ccc(F)cc2F)c(Br)c(=O)n1Cc1ccccc1 [Example 105, 1-(2-{[(1-benzyl-3-bromo-6-methyl-2-oxo-1,2-dihydropyridin-4-yl)oxy]methyl}benzyl)-3-[3-tert-butyl-1-(2,4-difluorophenyl)-1H-pyrazol-5-yl]urea] | 8.19
5 | CCc1c(OCc2ccccc2CNC(=O)Nc2cc(C(C)(C)C)nn2-c2ccc(C)cc2)ncn(Cc2ccccc2)c1=O [Example 110, 1-(2-{[(1-benzyl-5-ethyl-6-oxo-1,6-dihydropyrimidin-4-yl)oxy]methyl}benzyl)-3-[3-tert-butyl-1-(4-methylphenyl)-1H-pyrazol-5-yl]urea] | 14.4
6 | CCc1c(OCc2ccccc2CNC(=O)Nc2cc(C(C)(C)C)nn2-c2ccccc2)ncn(Cc2ccccc2)c1=O [Example 113, 1-(2-{[(1-benzyl-5-ethyl-6-oxo-1,6-dihydropyrimidin-4-yl)oxy]methyl}benzyl)-3-(3-tert-butyl-1-phenyl-1H-pyrazol-5-yl)urea] | 10
7 | CCc1c(OCc2ccccc2CNC(=O)Nc2cc(C(C)(C)C)nn2-c2ccc(C)cc2)ncn(Cc2ccc(OC)cc2)c1=O [Example 114, 1-[3-tert-butyl-1-(4-methylphenyl)-1H-pyrazol-5-yl]-3-[2-({[5-ethyl-1-(4-methoxybenzyl)-6-oxo-1,6-dihydropyrimidin-4-yl]oxy}methyl)benzyl]urea] | 16.3
8 | CCc1c(OCc2ccccc2CNC(=O)Nc2cc(C(C)(C)C)nn2-c2cccc(OC)c2)ncn(Cc2ccc(OC)cc2)c1=O [Example 115, 1-[3-tert-butyl-1-(3-methoxyphenyl)-1H-pyrazol-5-yl]-3-[2-({[5-ethyl-1-(4-methoxybenzyl)-6-oxo-1,6-dihydropyrimidin-4-yl]oxy}methyl)benzyl]urea] | 25.8
9 | CCc1c(OCc2ccccc2CNC(=O)Nc2cc(C(C)(C)C)nn2-c2cccc(F)c2)ncn(Cc2ccc(OC)cc2)c1=O [Example 116, 1-[3-tert-butyl-1-(3-fluorophenyl)-1H-pyrazol-5-yl]-3-[2-({[5-ethyl-1-(4-methoxybenzyl)-6-oxo-1,6-dihydropyrimidin-4-yl]oxy}methyl)benzyl]urea] | 10.1
10 | COc1ccc(Cn2c(C)cc(OCc3ccccc3CNC(=O)Nc3cc(C(C)(C)C)nn3-c3ccc(F)cc3F)c(Br)c2=O)c(OC)c1 [Example 121, 1-[2-({[3-bromo-1-(2,4-dimethoxybenzyl)-6-methyl-2-oxo-1,2-dihydropyridin-4-yl]oxy}methyl)benzyl]-3-[3-tert-butyl-1-(2,4-difluorophenyl)-1H-pyrazol-5-yl]urea] | 11

Second part, the molecule after the results:

Row | IC50 [nM] | SMILES
11 | 20.1 | COc1cc(Cn2c(C)cc(OCc3ccccc3CNC(=O)Nc3cc(C(C)(C)C)nn3-c3cccc(O)c3)c(Cl)c2=O)ccc1Cl [Example 81, 1-[3-tert-butyl-1-(3-hydroxyphenyl)-1H-pyrazol-5-yl]-3-[2-({[3-chloro-1-(4-chloro-3-methoxybenzyl)-6-methyl-2-oxo-1,2-dihydropyridin-4-yl]oxy}methyl)benzyl]urea]
12 | 3.9 | COc1ccc(Cn2c(C)cc(OCc3ccccc3CNC(=O)Nc3cc(C(C)(C)C)nn3-c3cccc(F)c3)c(Br)c2=O)cc1 [Example 97, 1-[2-({[3-bromo-1-(4-methoxybenzyl)-6-methyl-2-oxo-1,2-dihydropyridin-4-yl]oxy}methyl)benzyl]-3-[3-tert-butyl-1-(3-fluorophenyl)-1H-pyrazol-5-yl]urea]
13 | 4.23 | COc1ccc(Cn2c(C)cc(OCc3ccccc3CNC(=O)Nc3cc(C(C)(C)C)nn3-c3cccc(Cl)c3)c(Br)c2=O)cc1 [Example 98]
14 | 3.49 | COc1ccc(Cn2c(C)cc(OCc3ccccc3CNC(=O)Nc3cc(C(C)(C)C)nn3-c3cccc(OC)c3)c(Br)c2=O)cc1 [Example 99, 1-[2-({[3-bromo-1-(4-methoxybenzyl)-6-methyl-2-oxo-1,2-dihydropyridin-4-yl]oxy}methyl)benzyl]-3-[3-tert-butyl-1-(3-methoxyphenyl)-1H-pyrazol-5-yl]urea]
15 | 4.59 | Cc1ccc(-n2nc(C(C)(C)C)cc2NC(=O)NCc2ccccc2COc2cc(C)n(Cc3ccc(O)cc3)c(=O)c2Br)cc1 [Example 100, 1-[2-({[3-bromo-1-(4-hydroxybenzyl)-6-methyl-2-oxo-1,2-dihydropyridin-4-yl]oxy}methyl)benzyl]-3-[3-tert-butyl-1-(4-methylphenyl)-1H-pyrazol-5-yl]urea]
16 | 8.19 | COc1ccc(Cn2c(C)cc(OCc3ccccc3CNC(=O)Nc3cc(C(C)(C)C)nn3-c3ccc(C)cc3)c(Br)c2=O)cc1 [Example 101, 1-[2-({[3-bromo-1-(4-methoxybenzyl)-6-methyl-2-oxo-1,2-dihydropyridin-4-yl]oxy}methyl)benzyl]-3-[3-tert-butyl-1-(4-methylphenyl)-1H-pyrazol-5-yl]urea]
17 | 2.62 | Cc1cc(OCc2ccccc2CNC(=O)Nc2cc(C(C)(C)C)nn2-c2cccc(F)c2)c(Br)c(=O)n1Cc1ccccc1 [Example 103, 1-(2-{[(1-benzyl-3-bromo-6-methyl-2-oxo-1,2-dihydropyridin-4-yl)oxy]methyl}benzyl)-3-[3-tert-butyl-1-(3-fluorophenyl)-1H-pyrazol-5-yl]urea]
18 | 4.59 | Cc1ccc(-n2nc(C(C)(C)C)cc2NC(=O)NCc2ccccc2COc2cc(C)n(Cc3ccccc3)c(=O)c2Br)cc1 [Example 106, 1-(2-{[(1-benzyl-3-bromo-6-methyl-2-oxo-1,2-dihydropyridin-4-yl)oxy]methyl}benzyl)-3-[3-tert-butyl-1-(4-methylphenyl)-1H-pyrazol-5-yl]urea]
19 | 3.71 | Cc1cc(OCc2ccccc2CNC(=O)Nc2cc(C(C)(C)C)nn2-c2cccc(Cl)c2)c(Br)c(=O)n1Cc1ccccc1 [Example 108, 1-(2-{[(1-benzyl-3-bromo-6-methyl-2-oxo-1,2-dihydropyridin-4-yl)oxy]methyl}benzyl)-3-[3-tert-butyl-1-(3-chlorophenyl)-1H-pyrazol-5-yl]urea]
20 | 6.38 | COc1cccc(-n2nc(C(C)(C)C)cc2NC(=O)NCc2ccccc2COc2cc(C)n(Cc3ccccc3)c(=O)c2Br)c1 [Example 109, 1-(2-{[(1-benzyl-3-bromo-6-methyl-2-oxo-1,2-dihydropyridin-4-yl)oxy]methyl}benzyl)-3-[3-tert-butyl-1-(3-methoxyphenyl)-1H-pyrazol-5-yl]urea]
21 | 15.7 | COc1ccc(Cn2c(C)cc(OCc3ccccc3CNC(=O)Nc3cc(C(C)(C)C)nn3-c3cccc(F)c3)c(Br)c2=O)c(OC)c1 [Example 117, 1-[2-({[3-bromo-1-(2,4-dimethoxybenzyl)-6-methyl-2-oxo-1,2-dihydropyridin-4-yl]oxy}methyl)benzyl]-3-[3-tert-butyl-1-(3-fluorophenyl)-1H-pyrazol-5-yl]urea]
22 | 11.9 | COc1cccc(-n2nc(C(C)(C)C)cc2NC(=O)NCc2ccccc2COc2cc(C)n(Cc3ccc(OC)cc3OC)c(=O)c2Br)c1 [Example 119, 1-[2-({[3-bromo-1-(2,4-dimethoxybenzyl)-6-methyl-2-oxo-1,2-dihydropyridin-4-yl]oxy}methyl)benzyl]-3-[3-tert-butyl-1-(3-methoxyphenyl)-1H-pyrazol-5-yl]urea]
23 | 15.5 | COc1ccc(Cn2c(C)cc(OCc3ccccc3CNC(=O)Nc3cc(C(C)(C)C)nn3-c3ccccc3)c(Br)c2=O)c(OC)c1 [Example 120, 1-[2-({[3-bromo-1-(2,4-dimethoxybenzyl)-6-methyl-2-oxo-1,2-dihydropyridin-4-yl]oxy}methyl)benzyl]-3-(3-tert-butyl-1-phenyl-1H-pyrazol-5-yl)urea]
24 | 15.4 | COc1ccc(Cn2c(C)cc(OCc3ccccc3CNC(=O)Nc3cc(C(C)(C)C)nn3-c3ccc(C)cc3)c(Br)c2=O)c(OC)c1 [Example 122, 1-[2-({[3-bromo-1-(2,4-dimethoxybenzyl)-6-methyl-2-oxo-1,2-dihydropyridin-4-yl]oxy}methyl)benzyl]-3-[3-tert-butyl-1-(4-methylphenyl)-1H-pyrazol-5-yl]urea]
